Test results taken from PMC5104457, “ATP-Competitive MLKL Binders Have No Functional Impact on Necroptosis” (PLoS ONE, 2016).
Where two headings read alike, the source gives them in different places.

Tests used:
kinase domain of RIPK1 = target: T1, kinase domain of RIPK1 (Homo sapiens, UniProt Q13546); experiment: Differential scanning fluorimetry (thermal shift), RIPK1 kinase domain; assay type: binding; details: 10 μM compound, 1 μM protein, average of triplicates
T1 construct: The kinase domain of RIPK1; made in house
T1 sequence (Q13546 17-289 limits assumed): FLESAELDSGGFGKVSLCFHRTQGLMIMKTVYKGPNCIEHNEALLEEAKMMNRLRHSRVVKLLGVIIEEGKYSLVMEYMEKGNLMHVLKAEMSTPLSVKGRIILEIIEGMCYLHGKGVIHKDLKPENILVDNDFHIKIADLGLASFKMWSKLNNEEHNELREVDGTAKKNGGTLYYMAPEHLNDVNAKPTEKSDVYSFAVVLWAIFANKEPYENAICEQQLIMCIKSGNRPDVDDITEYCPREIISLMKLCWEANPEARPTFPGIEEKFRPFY
Experimental: (§1) To measure the thermal stabilization of the proteins upon compound binding we employed differential scanning fluorimetry (DSF). The kinase domain of RIPK1 and the N-terminal domain HSP90α were expressed and purified as previously described. The pseudokinase MLKL-1, RIPK1 and Hsp90 were melted at 1μM final concentrations in 25mM HEPES pH 8.0, 250mM NaCl and 2.5mM DTT. Compounds were added to a final concentration of 10 μ M with a final DMSO concentration of 5%. The complexes were incubated on ice for 30 minutes. Protein Thermal Shift dye (Life Technologies) was added to 1X. The fluorescence intensities were measured using a Quantstudio real-time PCR system (Life Technologies) with excitation at 470 nm and emission at 586 nm. The samples, measured in triplicate, were heated from 25 to 85°C with a heating rate of […].

403 non-mutant kinases = experiment: DiscoverX kinase selectivity panel; assay type: binding; details: 1 μM compound
Excerpt: We then characterized several compounds that were expected to bind to MLKL across a broad panel of 403 non-mutant kinases at DiscoverX.

[1] = tested on: RIPK3 phosphorylation of MLKL in 293T cells; experiment: MLKL phosphorylation assay (MSD), RIPK3-dependent phospho Ser358; assay type: cell-based, human; details: 293T cells with GFP-MLKL and RIPK3-mCherry, 30 min compound, normalized to DMSO
Experimental: The cDNA clones of human MLKL (RC213152) and human RIPK3 (RC209549) were purchased from Origene. To generate GFP-MLKL and RIPK3-mCherry, coding sequences of the corresponding cDNA sequences were PCR amplified and cloned into Biogen’s mammalian expression vector.
293T cells grown in 10 cm plates were transfected with GFP-MLKL alone or both GFP-MLKL and RIPK3-mCherry plasmids. After 24 hours, cells were harvested and replated into poly D lysine coated 96W plate with 20,000 cells/ml. Four hours later, cells were treated with MLKL compounds for 30 min and incubated at 37°C. Thirty minutes later, the media was removed and cells were lysed in 150μl of Cell lysis buffer (Cell Signaling, MA) containing both protease and phosphatase inhibitors. The lysates were transferred to 96 well MSD plates (Meso Scale Discovery, MD) that were precoated with anti-mouse MLKL antibody H00197259-M02, 3B2, Novus Biologicals, CO), and incubated overnight at 4°C. After washing the plates three times with 1x MSD wash buffer (50mM TRIS-HCl, 150mM NaCl, 0.02% Tween 20, pH7.5), 100 μl of 0.5μg/ml of rabbit-anti-MLKL phospho Ser358 (Abcam AB187091) was added to each well. The plates were incubated for 2 hours at room temperature. After three washes with MSD wash buffer, 100 μ l of 0.5ug/ml of SULFO-tag labeled anti-rabbit IgG was added to each well and incubated for 1 hour at room temperature. After three washes, 1x Read bufferT (Meso Scale Discovery, MD) was added and the electrochemiluminescence (ECL) was measured with a MSD Sector Imager 600.

pseudokinase MLKL-1 = target: T2, pseudokinase MLKL-1 (Homo sapiens, UniProt Q8NB16); experiment: Differential scanning fluorimetry (thermal shift), MLKL pseudokinase domain; assay type: binding; details: 10 μM compound, 1 μM protein, average of triplicates; read-out: MLKL Pseudo-kinase thermal shift at 10 μM
T2 construct: sub-cloning residues 191 to 471 of the pseudokinase domain of human MLKL cDNA; His6 (thrombin cleavable) (N); made in house; host or cells: Escherichia coli BL21 (DE3)
T2 sequence (Q8NB16 191-471): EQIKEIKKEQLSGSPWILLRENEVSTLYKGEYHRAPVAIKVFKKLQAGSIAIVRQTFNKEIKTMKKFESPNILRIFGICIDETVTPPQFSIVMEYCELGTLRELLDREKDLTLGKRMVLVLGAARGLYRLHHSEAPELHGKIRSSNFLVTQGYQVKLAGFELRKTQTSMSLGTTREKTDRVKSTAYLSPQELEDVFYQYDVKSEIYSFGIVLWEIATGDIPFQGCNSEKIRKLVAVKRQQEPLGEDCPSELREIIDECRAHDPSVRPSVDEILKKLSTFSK
Excerpt: MLKL-1 was constructed by sub-cloning residues 191 to 471 of the pseudokinase domain of human MLKL cDNA into a pET15b vector with a thrombin cleavable N-terminal six histidine fusion tag (His-MLKL-1). MLKL-2 had the same protein boundaries and fusion tag system as MLKL-1 but the dual mutations E366A and K367A were introduced using site directed mutagenesis and was expressed in the same vector (His-MLKL-2).
as §1

FADD (-/-) Jurkat cells = experiment: Necroptosis assay: rescue from TNF-α induced cell death; assay type: cell-based; details: Homo sapiens; for IC50: read-out: Necroptosis cell IC50
Experimental: Necroptosis assays were performed at Charles River Laboratories (United Kingdom) and at Biogen. […] On the day of the experiment, cells were counted using Nexcelom Bioscience Cell Meter Vision and pelleted by centrifugation. Cell pellets were resuspended in fresh medium at 500,000 cells per mL and transferred to assay-ready compound plates prepared in 384-well white TC plates (Greiner #781080) at 20μl cells per well. Cells and compound were incubated at room temperature for 30 minutes followed by +/- stimulation with 15ng/ml TNF-α (Cell signalling Technologies #8902LF) overnight at 37°C. In the morning, plates were equilibrated to room temperature for 30 minutes and 25μl of CellTiter-Glow (CellTiter-Glo 2.0 Assay, Promega # G9243) diluted 1:4 in PBS was added to each well and allowed to incubate for 10 minutes at room temperature. Luminescence was read on an Envision plate reader (Perkin Elmer).
TNF-α added to these cells induces necroptosis or cell death. The term “Rescue” refers to the ability of a compound to prevent loss of cell viability in the presence of TNF. Definitions of the presence or absence of compound or TNF stimulation in the wells that were used to calculate degree of rescue or viability is defined in Table 1.
100% percent rescue is defined as the value of the “no TNF” wells minus the value of wells treated with “TNF”.
Percent Rescue is then the ratio of the intensity value of the experimental “well” minus the value of “TNF” treated wells divided by the overall difference between the value of “no TNF” treated wells and the value of “TNF” treated wells.
%rescue=((well - TNF)/(no TNF - TNF))x100

SMILES: CN(c1ccc(NC(=O)Nc2ccc(OC(F)(F)F)cc2)cc1)c1ccnc(Nc2cccc(S(N)(=O)=O)c2)n1 [cpd 1, reference compound]
- ΔTm at 10 µM (kinase domain of RIPK1): 5 to 6 °C
- number of kinases inhibited out of 403 (403 non-mutant kinases): 56
- effect on RIPK3-dependent phosphorylation of MLKL (phospho Ser358, in words) ([1]; listed as Cpd 1): does not impact its phosphorylation
- ΔTm at 10 µM (pseudokinase MLKL-1): 5 to 6 °C
- IC50 (FADD (-/-) Jurkat cells; Jurkat): 1850 nM
- EC50 (FADD (-/-) Jurkat cells; FADD deficient Jurkat cells, TNF stimulation): 1850 nM

SMILES: Nc1nccnc1C(=O)O[C@@H](C(=O)Nc1ccc(F)cc1)c1ccccc1 [cpd 4, 3-Amino-pyrazine-2-carboxylic acid (R)-(4-fluorophenylcarbamoyl)-phenyl-methyl ester]
- ΔTm at 10 µM (kinase domain of RIPK1): -0.15 °C
- number of kinases inhibited out of 403 (403 non-mutant kinases): 1
- number of kinases inhibited out of 403 (403 non-mutant kinases; listed as Cpd 4): none
- effect on RIPK3-dependent phosphorylation of MLKL (phospho Ser358, in words) [1]: does not impact its phosphorylation
- ΔTm at 10 µM (pseudokinase MLKL-1): 4 °C
- IC50 (FADD (-/-) Jurkat cells; FADD deficient Jurkat cells, TNF-α 15 ng/ml overnight, average of duplicates): > 40000 nM
